In brackets after ≈: the same amount, converted by molar mass.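 Following 48 hours of exposure in 96-well plates, responses at five concentrations were used to interpolate endpoints linearly. GI50 is the concentration that inhibits growth by half. The concentration for full growth arrest is given as TGI.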
Experiments:
Experiment in all cases: NCI anticancer screen, dose series, 48 h
[1] = test system: CCRF-CEM leukemia
[2] = test system: HOP-62 NSCLC
[3] = test system: M14 melanoma
[4] = test system: NCI-H23 lung
[5] = test system: OVCAR-5 ovarian
[6] = test system: RPMI-8226 leukemia
[7] = test system: SK-OV-3 ovarian
[8] = test system: U251 CNS
[9] = test system: UACC-257 melanoma
[10] = test system: UO-31 renal

Compound	TGI [1]	TGI [2]	TGI [3]	TGI [4]	TGI [5]	TGI [6]	TGI [7]	TGI [8]	TGI [9]	TGI [10]	GI50 [1]	GI50 [2]	GI50 [3]	GI50 [4]	GI50 [5]	GI50 [6]	GI50 [7]	GI50 [8]	GI50 [9]	GI50 [10]
COC(=O)C(Cc1cn(C(C)n2cc(CC(NC(C)=O)C(=O)OC)c3ccccc32)c2ccccc12)NC(C)=O (configuration not stated)	> 100 µM	> 100 µM	> 100 µM	> 100 µM	> 100 µM	> 100 µM	> 100 µM	> 100 µM	> 100 µM	> 100 µM										
O=c1oc2ccccc2c(O)c1Cc1ccc(Cc2c(O)c3ccccc3oc2=O)cc1	> 100 µM	> 100 µM	> 100 µM	> 100 µM	> 100 µM		> 100 µM	> 100 µM	> 100 µM	> 100 µM										
O=C(O)c1nc2ccc(C(F)(F)F)cc2[nH]c1=O	> 100 µM	> 100 µM	> 100 µM	> 100 µM	> 100 µM	> 100 µM	> 100 µM	> 100 µM	> 100 µM	> 100 µM										
COC(=O)CC(=O)OSc1ccccc1	> 100 µM	53.4 µM	38.7 µM	82.9 µM	> 100 µM	> 100 µM	46 µM	24.1 µM	87.7 µM	24.7 µM										
CCOC(=O)c1csc(NC(=O)C(C)N2CCCC2)n1 (configuration not stated)	> 100 µM	> 100 µM	> 100 µM	> 100 µM	> 100 µM	> 100 µM	> 100 µM	> 100 µM	> 100 µM	> 100 µM										
CSCC[C@@H](NC(=O)[C@H](CC(C)C)NC(=O)C(Cc1cnc[nH]1)NC(=O)CNC(=O)[C@@H](NC(=O)[C@H](C)NC(=O)[C@H](Cc1c[nH]c2ccccc12)NC(=O)[C@H](CCC(N)=O)NC(=O)[C@@H](N)CC(N)=O)C(C)C)C(N)=O (some centres not stated)	> 100 µM	> 100 µM		> 100 µM	> 100 µM	> 100 µM	> 100 µM	> 100 µM	> 100 µM	> 100 µM										
CN(C)CCNC(=O)c1cccc2c1Nc1ccccc1S2	28.1 µM	33.4 µM		28.5 µM	26.3 µM	29.9 µM	30.5 µM	26.9 µM	27 µM	21.8 µM										
O=C1NN(C2=NNC3(C(=O)N2)c2ccccc2-c2ccccc23)C(c2ccccc2)=N/C1=C/c1ccc(Cl)cc1	> 150 µg/mL	> 150 µg/mL	> 150 µg/mL	> 150 µg/mL	> 150 µg/mL	> 150 µg/mL	> 150 µg/mL	143 µg/mL	> 150 µg/mL	> 150 µg/mL	52.6 µg/mL (≈ 96.5 µM)	49.1 µg/mL (≈ 90 µM)	59.8 µg/mL (≈ 110 µM)	34.9 µg/mL (≈ 64.1 µM)	132 µg/mL (≈ 242 µM)	63.6 µg/mL (≈ 117 µM)	54 µg/mL (≈ 99.1 µM)	41.3 µg/mL (≈ 75.8 µM)	68 µg/mL (≈ 125 µM)	48 µg/mL (≈ 88 µM)

Source: PubChem BioAssay (NCI)
